Values after ≈ are worked out from the molar mass of the structure shown. Read-outs that look alike come from different tables or passages of the source.
What was measured:
[1] = tested on: HEK293T cells transiently transfected with empty, wildtype, R183Q, or Q209L constructs; assay: MTT assay dose response curve for puromycin, 24 well plate, transiently transfected cells; assay type: cell-based; conditions: Homo sapiens, HEK-293T, 72 h, puromycin 3 days, read-out: Half maximal inhibitory concentration (IC50), cell number
Description: FIG. 1 is a plot showing response of cells as a function of puromycin concentration. HEK293T cells were transiently transfected with empty, wildtype, R183Q, or Q209L constructs and then exposed to puromycin for 3 days before cell number was assessed by MTT assay in 24 well plate.
To determine whether mutations in GNAQ conferred increased sensitivity to puromycin, an MTT (3-(4,5-dimethylthiazol-2-yl)-2,5-diphenyltetrazolium bromide) assay dose response curve was done with HEK239 cells (including standard curve and normalization) after transient transfection. Puromycin exposure in HEK293 cells transiently transfected with R183Q or Q209L (no puromycin selection) over greater than a 100 fold dose range was then tested.
HEK 293 cells (5×10^5 cells/well) in 6 well-plates were transient transfected with 1 μg of construct (pcDNA3.1-GNAQ, pcDAN3.1-R183Q and pcDNA3.1-Q209L) per well. Twenty-four (24) hours later, the cells were digested, counted and aliquoted into 24 well plates (0.8×10^5 cells/well). After another 24 hours, the transfected cells were incubated with various concentrations of puromycin.
Three days later, the relative cell numbers were detected using MTT assay reagents (CellTiter 96® Aqueous One Solution Cell Proliferation Assay Reagents) as follows. After being thawed at room temperature, 40 μl the CellTiter 96® Aqueous One Solution Reagent was pipetted into each well of the 24-well assay plate containing the samples in 200 μl of culture medium. Then, the plates were incubated at 37° C. for 2 hours in a humidified, 5% CO2 atmosphere. The supernatants were transferred into 96-well plates. The absorbance at 490 nm of each sample was read by using a plate reader (SpectraMax M5). Optical density directly correlated with viable cell quantity.
A software program (GraphPad Prism) was used to generate Dose Response Curves. A non-linear regression was done to graph the Log [puromycin molar concentration] versus Maximal Inhibitory Response. The GraphPad program was used to calculate the IC50 of puromycin for each cell line (dose that gives a 50% maximal response) and the 95% confidence intervals. A 2-way ANOVA (Dose by Construct) was done to determine if there is a significant effect of construct upon puromycin effect with p-value of <0.05 used to determine significance.

[2] = tested on: HEK293T cells transiently transfected with pcDNA3.1-E, pcDNA3.1-GNAQ, pcDNA3.1-R183Q, pcDNA3.1-Q209L; assay: Puromycin dose response curve, CellTiter 96 cell proliferation assay, 96-well plates; assay type: cell-based; conditions: Homo sapiens, HEK-293T, 72 h, 3 days, read-out: half maximal inhibitory concentration (IC50)
Description: FIG. 5 is a plot showing a dose response curve for puromycin. HEK 293T cells (5×10^5 cells/well in six-well plate) were transiently transfected with pcDNA3.1-E, pcDNA3.1-GNAQ, pcDNA3.1-R183Q, pcDNA3.1-Q209L. Twenty-four (24) hours later, the cells were digested, counted and aliquoted into 96-well plates. Twenty-four (24) hours later, the cells were incubated with a series of puromycin concentrations. Three days later, the relative cell numbers were detected using a cell proliferation assay.
A dose response curve (cell number in response to puromycin concentration) for HEK293T cells transiently transfected pcDNA3.1-E, pcDNA3.1-GNAQ, pcDNA3.1-R183Q and pcDNA3.1-Q209L and treated with puromycin is shown in FIG. 5. Cells expressing either the pcDNA3.1-R183Q or pcDNA3.1-Q209L plasmids were more sensitive to puromycin compared with cells transfected with the pcDNA3.1-E or pcDNA3.1-GNAQ plasmids.
HEK293T cells (5×10^5 cells/well) in 6 well-plates were transiently transfected with 1 μg (pcDNA3.1-E, pcDNA3.1-GNAQ, pcDAN3.1-R183Q and pcDNA3.1-Q209L) per well using FUGENE 6®. Twenty-four (24) hours later, the cells were digested, counted and aliquoted into 96-well plates (1×10^4 cells/well). After another 24 hours, the transfected cells were incubated with a 100-fold concentration series of puromycin. Three days later, the relative cell numbers were detected using CELLTITER 96® Aqueous One Solution Cell Proliferation Assay Reagents (Promega #G3582) as follows: After being thawed at room temperature, 10 μl of CELLTITER 96® Aqueous One Solution Reagent was pipet into each well of the 96-well assay plate containing the samples in 100 μl of culture medium. Then, the plates were incubated at 37° C. for 2 hours in a humidified, 5% CO2 atmosphere. The absorbance at 490 nm of each sample was read by using SpectraMAX M5. Readings were normalized to that in pcDNA3.1-GNAQ cells receiving vehicle. Results were analyzed in GraphPad. Experiment was done in quadruplicate samples.

untransformed HMECs = assay: Puromycin dose response curve in untransformed HMECs; assay type: cell-based, human; conditions: 1 ug/ml puromycin, after 48 hours
[3] = tested on: HEK293T cells with pcDNA3.1-E, -GNAQ, -R183Q or -Q209L plasmids; assay: RT-PCR gene expression with or without puromycin treatment; assay type: cell-based, human
Description: A panel of genes, important to the regulation of the pathways downstream of GNAQ, were evaluated by RT-PCR in mRNA samples gathered from cells with the pcDNA3.1-E, pcDNA3.1-GNAQ, pcDNA3.1-R183Q or pcDNA3.1-Q209L plasmids with or without puromycin treatment of 0.04 ug/ul (FIGS. 6A-6F, n=3 per group from 3 separate experiments).
HEK293T cells (5×10^5 cells/well) were transfected with 1 μg plasmid (pcDNA3.1-GNAQ, pcDAN3.1-R183Q or pcDNA3.1-Q209L) in 6-well plates. Twenty-four (24) hours later, cells were digested and re-plated into 6-well plates. Twenty-four (24) hours later, the plates were incubated in DMEM (10% FBS) with or without 0.04 μg/ml puromycin. Three days later, total RNA of treated HEK293T cells were isolated by using RNEASY® Mini Kit (QIAGEN) as follows. Media was aspirated, and the cells washed twice with PBS. 350 μl Buffer RLT with B-Mercaptoethanol was added to the each well. The lysate was pipetted into a microcentrifuge tube and pipetted to mix. 1 volume of 70% ethanol was added to the lysate. Lysate was transferred to an RNEASY® spin column placed in a 2 ml collection tube (supplied) and centrifuged. RNEASY® spin column was washed as per kit instructions. 50 μl RNase-free water was added directly to the center of the spin column membrane which was centrifuged for 1 min at 12,000 rpm to elute the RNA. Three separate experiments were performed to obtain triplicate mRNA and protein samples for analysis.
Reverse Transcription was carried out with the using the High Capacity cDNA Reverse Transcription Kits and based on Applied Biosystems' protocol. 2×RT master mix is prepared using the kit components before preparing the reaction plate and kit components allowed to thaw on ice. Referring to one reaction amount of components, the volume of components needed to prepare the required number of reactions was calculated. Then 10 μl of 2×RT master mixes was pipetted into each well of 500 μl PCR clean tubes. 10 μL of RNA sample (1 μg) was pipetted into each tube which is then mixed, centrifuged and then placed in a thermal cycler with the program of (10 min at 25° C., 120 min at 37° C., 5 min at 85° C., then 4° C.). After the thermal cycler, 1 μl RNase H was added into the tubes and incubated at 37° C. for 20 min. Finally, 600 μl Nuclease-free H2O was added into each tube.
The primers for Real-Time PCR were designed online with Primer-BLAST software tool. For each gene, at least three primers at different locations were designed based on the cDNA of the genes. The primer concentrations were normalized and were adjusted to 5 pmol/μ1. The real-time PCR reaction mixture of 20 μl included 10 μl SYBR Green Mix (2×), 2 μl primer pair mix, and 8 μl diluted cDNA solution. The Real-time PCR of loaded samples were run on CFX Connect™ real-time PCR system (Bio-rad) with extension steps of (50° C. 2 min 1 cycle, 95° C. 10 min 1 cycle, 95° C. 15 sec then 60° C. 1 min 40 cycles, 72° C. 10 min, 1 cycle) followed by a melting curve analysis (from 55° C. to 95° C. increments 0.05° C./Sec) to guarantee absence of nonspecific amplification. The primers with a unique peak in melting curve were chosen for next step. The primers were also only used for next experiments after they were confirmed by obtaining the same results from other primers for the same gene. With the final confirmed primers, the RNA levels in triplicate samples, obtained from three separate experiments, were measured.

[4] = tested on: HEK293T cells with GNAQ constructs; assay: Western blot of protein levels after puromycin treatment; assay type: cell-based, human
Description: Treated cells were harvested with ice-cold radioimmunoprecipitation assay (RIPA) buffer (150 mM NaCl, 1.0% IGEPAL® CA-630, 0.5% sodium deoxycholate, 0.1% SDS, and 50 mM Tris, pH 8.0) (Sigma-Aldrich) plus phosphatase inhibitor cocktail (Cell signaling technology, #5870) and analyzed by western blot as follows: Quantitative protein samples were denatured in 4×LDS Sample buffer (Invitrogen) at 100° C. for 6 minutes. Samples were then subjected to SDS-PAGE by using Bio-Rad 4-15% gradient gels and transferred to PVDF membrane. The membranes were blocked with Li-cor ODYSSEY® Blocking buffer for 30 minutes at room temperature. Then the membranes were incubated with primary antibody (GaQ 1:125, Santa Cruz Biotechnology, sc-393; p-ERK 1:1000, Cell Signaling Technology, 4370; ERK 1:1000, Cell signaling Technology, 4696; HSP90 1:1000, Cell Signaling Technology, 4877) in a 1:1 solution of Li-cor ODYSSEY® blocking buffer and Tris-Buffered Saline and 0.1% Tween 20 (TBST) overnight at 4° C. The membranes were then washed three times for 10 min each in Tris-Buffered Saline and 0.1% Tween 20 (TBST) then probed with goat anti-mouse (IR-Dye 680RD) or goat anti Rabbit (IR-Dye-800CW) labeled secondary antibody in 1:1 Li-cor ODYSSEY® blocking buffer to TBST for 1 hour at room temperature. […] Bands were quantified using Image J software program.

[5] = all three constructs, puromycin alone, significant

COc1ccc(C[C@H](N)C(=O)N[C@H]2[C@@H](O)[C@H](n3cnc4c(N(C)C)ncnc43)O[C@@H]2CO)cc1 [puromycin]
IC50 ([1]; Q209L construct): 190 nM | IC50 ([1]; R183Q construct): 190 nM | IC50 ([1]; empty construct): 290 nM | IC50 ([1]; wildtype GNAQ construct): 290 nM | IC50 ([2]; HEK293T with pcDNA3.1-E (empty)): 0.084 µg/mL (≈ 0.178 µM) | IC50 ([2]; HEK293T with pcDNA3.1-GNAQ (wildtype)): 0.091 µg/mL (≈ 0.193 µM) | IC50 ([2]; HEK293T with pcDNA3.1-Q209L): 0.051 µg/mL (≈ 0.108 µM) | IC50 ([2]; HEK293T with pcDNA3.1-R183Q): 0.064 µg/mL (≈ 0.136 µM) | cells killed (untransformed HMECs): 100% | ID3 mRNA levels ([3]; R183Q and Q209L mutant cells, puromycin, compared to wildtype puromycin treated and vehicle treated mutant cells): upregulated | TRIO mRNA levels ([3]; all three constructs, puromycin alone, not significant): up-regulated | PRKCQ mRNA levels [3, 5]: up-regulated | TEAD3 mRNA levels [3, 5]: up-regulated | PIK3C2B mRNA levels ([3]; all three constructs, puromycin alone, significant only in Q209L cells): up-regulated | TSC22D3 mRNA levels ([3]; cells expressing R183Q or Q209L plasmids, puromycin 0.04 ug/ml): further decreased | ID3 mRNA levels ([3]; wildtype cells, puromycin 0.04 ug/ml, compared to vehicle treated): up-regulated | TSC22D3 mRNA expression ([3]; wildtype cells, puromycin 0.04 ug/ml, compared to vehicle treated wildtype): decreased | ID3 protein levels ([4]; puromycin treatment, pcDNA3.1-GNAQ, pcDNA3.1-R183Q or pcDNA3.1-Q209L cells): further increased | Gαq protein levels ([4]; puromycin versus vehicle treated cells): No significant differences

Reference: patent US11452737B2, “Compositions and methods for treating vascular malformation and related conditions” (priority 2015, dated 2022)
